The source of these data is US20250051359A1, “MACROCYCLIC 2-AMINO-BUT-3-ENAMIDES AS INHIBITORS OF MCL-1” (JANSSEN PHARMACEUTICA NV, priority 2021, published 2025).

Assay [1] deals with Myeloid Cell Leukemia 1 (Mcl-1) (Homo sapiens, UniProt Q07820). Nature of the assay: Terbium labeled Mcl-1 HTRF binding assay, displacement of Cy5-labeled BIM BH3 peptide. Particulars: 25 pM Tb-Mcl-1, 8 nM Cy5 Bim peptide, 60 min at room temperature, read-out: Tb-MCL1 Ki. How it is done:
Terbium labeled Myeloid Cell Leukemia 1(Mcl-1) homogeneous time-resolved fluorescence (HTRF) binding assay utilizing the BIM BH3 peptide (H2N—(C/Cy5Mal) WIAQELRRIGDEFN-OH) as the binding partner for Mcl-1.
This assay evaluated inhibition of the BH3 domain: Mcl-1 interaction by measuring the displacement of Cy5-labeled BIM BH3 peptide (H2N—(C/Cy5Mal) WIAQELRRIGDEFN-OH) in the HTRF assay format.
The following assay and stock buffers were prepared for use in the assay: (a) Stock buffer: 10 mM Tris-HCl, pH=7.5+150 mM NaCl, filtered, sterilized, and stored at 4° C.; and (b) 1× assay buffer, where the following ingredients were added fresh to stock buffer: 2 mM dithiothreitol (DTT), 0.0025% Tween-20, 0.1 mg/mL bovine serum albumin (BSA). The 1×Tb-Mcl-1+Cy5 Bim peptide solution was prepared by diluting the protein stock solution using the 1× assay buffer (b) to 25 pM Tb-Mel-1 and 8 nM Cy5 Bim peptide.
Using the Acoustic ECHO, 100 nL of 100× test compound(s) were dispensed into individual wells of a white 384-well Perkin Elmer Proxiplate, for a final compound concentration of 1× and final DMSO concentration of 1%. Inhibitor control and neutral control (NC, 100 nL of 100% DMSO) were stamped into columns 23 and 24 of assay plate, respectively. Into each well of the plate was then dispensed 10 μL of the 1×Tb-Mcl-1+Cy5 Bim peptide solution. The plate was centrifuged with a cover plate at 1000 rpm for 1 minute, then incubated for 60 minutes at room temperature with plates covered.
The TR-FRET signal was read on an BMG PHERAStar FSX MicroPlate Reader at room temperature using the HTRF optic module (HTRF: excitation: 337 nm, light source: laser, emission A: 665 nm, emission B: 620 nm, integration start: 60 μs, integration time: 400 μs).
The BMG PHERAStar FSX MicroPlate Reader was used to measure fluorescence intensity at two emission wavelengths—665 nm and 620 nm—and report relative fluorescence units (RFU) for both emissions, as well as a ratio of the emissions (665 nm/620 nm)*10,000. The RFU values were normalized to percent inhibition as follows:
% inhibition(((NC−IC)−(compound−IC))(NC−IC))*100
where IC (inhibitor control, low signal)=mean signal of 1×Tb-MCl-1+Cy5 Bim peptide+inhibitor control or 100% inhibition of Mcl-1; NC (neutral control, high signal)=mean signal 1×Tb-MCl-1+Cy5 Bim peptide with DMSO only or 0% inhibition An 11-point dose response curve was generated to determine IC50 values (using GenData) based on the following equation:
where Y=% inhibition in the presence of X inhibitor concentration; Top=100% inhibition derived from the IC (mean signal of Mcl-1+inhibitor control); Bottom=0% inhibition derived from the NC (mean signal of Mcl-1+DMSO); Hillslope=Hill coefficient; and IC50=concentration of compound with 50% inhibition in relation to top/neutral control (NC).
Representative compounds of the present invention were tested according to the procedure as described above, with results as listed in the Table below (n.d. means not determined).

For assay [2], the system named is MOLP-8 human multiple myeloma cell line. In words: Caspase-Glo 3/7 apoptosis induction assay in MOLP-8 cells. The conditions noted are these: caspase-3/7 activity, 2 hours at 37° C., averaged over all runs on all batches, read-out: MOLP8 AC50. In kind it is cell-based. The source says:
MCL-1 is a regulator of apoptosis and is highly over-expressed in tumor cells that escape cell death. The assay evaluates the cellular potency of small-molecule compounds targeting regulators of the apoptosis pathway, primarily MCL-1, Bfl-1, Bcl-2, and other proteins of the Bcl-2 family. Protein-protein inhibitors disrupting the interaction of anti-apoptotic regulators with BH3-domain proteins initiate apoptosis.
The Caspase-Glo® 3/7 Assay is a luminescent assay that measures caspase-3 and −7 activities in purified enzyme preparations or cultures of adherent or suspension cells. The assay provides a proluminescent caspase-3/7 substrate, which contains the tetrapeptide sequence DEVD. This substrate is cleaved to release aminoluciferin, a substrate of luciferase used in the production of light. Addition of the single Caspase-Glo® 3/7 Reagent in an “add-mix-measure” format results in cell lysis, followed by caspase cleavage of the substrate and generation of a “glow-type” luminescent signal.
This assay uses the MOLP-8 human multiple myeloma cell line, which is sensitive to MCL-1 inhibition.
Cell cultures were maintained between 0.2 and 2.0×10^6 cells/mL. The cells were harvested by collection in 50 mL conical tubes. The cells were then pelleted at 500 g for 5 mins before removing supernatant and resuspension in fresh pre-warmed culture medium. The cells were counted and diluted as needed.
The assay reagent was prepared by transferring the buffer solution to the substrate vial and mixing. The solution may be stored for up to 1 week at 4° C. with negligible loss of signal.
Compounds were delivered in assay-ready plates (Proxiplate) and stored at −20° C.
Assays always include 1 reference compound plate containing reference compounds. The plates were spotted with 40 nL of compounds (0.5% DMSO final in cells; serial dilution; 30 μM highest conc. 1/3 dilution, 10 doses, duplicates). The compounds were used at room temperature and 4 μL of pre-warmed media was added to all wells except column 2 and 23. The negative control was prepared by adding 1% DMSO in media. The positive control was prepared by adding the appropriate positive control compound in final concentration of 60 μM in media. The plate was prepared by adding 4 μL negative control to column 23, 4 μL positive control to column 2 and 4 μL cell suspension to all wells in the plate. The plate with cells was then incubated at 37° C. for 2 hours. The assay signal reagent is the Caspase-Glo solution described above, and 8 μL was added to all wells. The plates were then sealed and measured after 30 minutes.
The activity of a test compound was calculated as percent change in apoptosis induction as follows: • LC=median of the Low Control values • =Central Reference in Screener • =DMSO • =[…] • HC=Median of the High Control values • =Scale Reference in Screener • =30 μM of positive control • =100% apoptosis induction
% Effect (AC50)=100−((sample−LC)/(HC−LC))*100
% Control=(sample/HC)*100
% Control min=((sample−LC)/(HC−LC))*100

Chain of Myeloid Cell Leukemia 1 (Mcl-1) (Q07820 whole entry): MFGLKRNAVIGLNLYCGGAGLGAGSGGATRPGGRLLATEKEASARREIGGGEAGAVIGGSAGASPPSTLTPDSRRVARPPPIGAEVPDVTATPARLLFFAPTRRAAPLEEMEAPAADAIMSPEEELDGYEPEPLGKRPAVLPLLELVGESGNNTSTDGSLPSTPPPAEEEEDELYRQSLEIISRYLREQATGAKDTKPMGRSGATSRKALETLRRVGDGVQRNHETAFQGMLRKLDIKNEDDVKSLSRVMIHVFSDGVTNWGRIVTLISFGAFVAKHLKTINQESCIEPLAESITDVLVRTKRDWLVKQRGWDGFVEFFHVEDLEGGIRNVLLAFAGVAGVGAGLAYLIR

As a reminder, the Ki is the equilibrium dissociation constant of an inhibitor or competing ligand from its target. One may read the AC50 as the concentration at which the activity in the assay is half-maximal. As for `C[C@@H]1[C@@H](C)C/C=C/[C@H](C(=O)N2CCOCC2)N2CCC[C@H]2CN2C[C@@]3(CCCc4cc(Cl)ccc43)COc3ccc(cc32)C(=O)NS1(=O)=O` [Compound 7], in assay [1], the Ki came out at 0.089 nM. The AC50 in assay [2] came to 360 nM. In the case of `C[C@@H]1[C@@H](C)C/C=C/[C@H](C(=O)N(C)CCC2CCOCC2)N2CCC[C@H]2CN2C[C@@]3(CCCc4cc(Cl)ccc43)COc3ccc(cc32)C(=O)NS1(=O)=O` [Compound 2], the Ki in assay [1] is 0.058 nM. Besides, the AC50 in assay [2] turned out to be 130 nM. Taken in the same sequence, the figures for `C[C@@H]1[C@@H](C)C/C=C/[C@@H](C(=O)N2CCOCC2)N2CC[C@H]2CN2C[C@@]3(CCCc4cc(Cl)ccc43)COc3ccc(cc32)C(=O)NS1(=O)=O` [Compound 9] were 0.196 nM and 660 nM. Turning to `C[C@@H]1[C@@H](C)C/C=C/[C@H](C(=O)N(C)CC2CCOCC2)N2CCC[C@H]2CN2C[C@@]3(CCCc4cc(Cl)ccc43)COc3ccc(cc32)C(=O)NS1(=O)=O` [Compound 3], the Ki in assay [1] was determined as 0.027 nM. In assay [2], the AC50 came to 81 nM. The matching figures for `C[C@@H]1[C@@H](C)C/C=C/[C@H](C(=O)N2CCOCC2)N2CC[C@H]2CN2C[C@@]3(CCCc4cc(Cl)ccc43)COc3ccc(cc32)C(=O)NS1(=O)=O` [Compound 8]: 0.705 nM and 340 nM.

As for `CC1CC=CC(C(=O)N(C)CCN2CCOCC2)N2CCCC2CN2CC3(CCCc4cc(Cl)ccc43)COc3ccc(cc32)C(=O)NS(=O)(=O)C1C` (centres unmarked) [Compound 5], the Ki in assay [1] is 0.024 nM. Also, the AC50 in assay [2] was found to be 180 nM. `COCCN(CCOC)C(=O)[C@H]1/C=C/C[C@H](C)[C@@H](C)S(=O)(=O)NC(=O)c2ccc3c(c2)N(C[C@@H]2CCCN21)C[C@@]1(CCCc2cc(Cl)ccc21)CO3` [Compound 1]: the Ki in assay [1] was 0.03 nM. Also, the AC50 in assay [2] came out at 56 nM.

As for `C[C@@H]1[C@@H](C)C/C=C/[C@H](C(=O)N(C)C)N2CCC[C@H]2CN2C[C@@]3(CCCc4cc(Cl)ccc43)COc3ccc(cc32)C(=O)NS1(=O)=O` [Compound 4], the Ki in assay [1] worked out at 0.142 nM. The AC50 in assay [2] turned out to be 180 nM. For `C[C@@H]1[C@@H](C)C/C=C/[C@@H](C(=O)N2CCOCC2)N2CCC[C@H]2CN2C[C@@]3(CCCc4cc(Cl)ccc43)COc3ccc(cc32)C(=O)NS1(=O)=O` [Compound 6], in assay [2], the AC50 was 1950 nM.
